Measured values as given in the kinase profiling compilation of Christmann-Franck et al. (2016).

What was measured:
Test in all cases: radiometric filter-binding kinase assay, Kinaseprofiler
[1] = test system: AKT2 (human), P31751 [S474D]; conditions: ATP 200 µM
[2] = test system: AURKA (human), O14965 [I31F]; conditions: ATP 15 µM
[3] = test system: MAPKAPK2 (human), P49137 [A399G]; conditions: ATP 90 µM
[4] = test system: MARK1 (human), Q9P0L2 [V16E/T20S]; conditions: ATP 10 µM
[5] = test system: MERTK (human), Q12866 [H628Q/R794A]; conditions: ATP 45 µM
Sequence of MERTK (human), Q12866 [H628Q/R794A] (Q12866 whole entry, looked up, stated change not applied): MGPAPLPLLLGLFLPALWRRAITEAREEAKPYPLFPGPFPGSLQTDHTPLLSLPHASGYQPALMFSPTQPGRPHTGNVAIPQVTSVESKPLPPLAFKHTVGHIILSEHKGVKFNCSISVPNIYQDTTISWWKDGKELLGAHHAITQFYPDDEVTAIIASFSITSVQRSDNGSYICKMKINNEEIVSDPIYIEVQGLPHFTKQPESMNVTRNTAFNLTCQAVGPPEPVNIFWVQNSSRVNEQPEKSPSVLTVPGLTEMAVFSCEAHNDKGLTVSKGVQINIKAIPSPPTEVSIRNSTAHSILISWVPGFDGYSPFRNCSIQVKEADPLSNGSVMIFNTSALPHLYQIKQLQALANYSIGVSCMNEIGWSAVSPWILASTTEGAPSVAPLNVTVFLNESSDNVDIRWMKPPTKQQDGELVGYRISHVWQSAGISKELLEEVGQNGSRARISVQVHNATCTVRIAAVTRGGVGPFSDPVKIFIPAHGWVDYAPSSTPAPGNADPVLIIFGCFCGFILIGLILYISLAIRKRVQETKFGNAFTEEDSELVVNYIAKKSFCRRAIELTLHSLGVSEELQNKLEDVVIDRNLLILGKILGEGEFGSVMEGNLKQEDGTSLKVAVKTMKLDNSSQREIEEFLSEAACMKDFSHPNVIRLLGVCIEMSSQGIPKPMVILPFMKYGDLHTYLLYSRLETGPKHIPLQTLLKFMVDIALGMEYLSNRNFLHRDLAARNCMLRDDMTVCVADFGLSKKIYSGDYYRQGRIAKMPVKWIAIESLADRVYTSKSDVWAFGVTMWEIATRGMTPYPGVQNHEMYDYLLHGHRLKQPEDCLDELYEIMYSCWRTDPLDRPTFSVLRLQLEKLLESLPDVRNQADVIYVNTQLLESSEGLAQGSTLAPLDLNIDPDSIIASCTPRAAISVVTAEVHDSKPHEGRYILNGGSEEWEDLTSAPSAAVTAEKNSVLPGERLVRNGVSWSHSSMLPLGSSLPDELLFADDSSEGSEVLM

[6] = test system: PRKCH (human), P24723 [V108L/G109R/L392Q]; conditions: ATP 45 µM
Sequence of PRKCH (human), P24723 [V108L/G109R/L392Q] (P24723 whole entry, looked up, stated change not applied): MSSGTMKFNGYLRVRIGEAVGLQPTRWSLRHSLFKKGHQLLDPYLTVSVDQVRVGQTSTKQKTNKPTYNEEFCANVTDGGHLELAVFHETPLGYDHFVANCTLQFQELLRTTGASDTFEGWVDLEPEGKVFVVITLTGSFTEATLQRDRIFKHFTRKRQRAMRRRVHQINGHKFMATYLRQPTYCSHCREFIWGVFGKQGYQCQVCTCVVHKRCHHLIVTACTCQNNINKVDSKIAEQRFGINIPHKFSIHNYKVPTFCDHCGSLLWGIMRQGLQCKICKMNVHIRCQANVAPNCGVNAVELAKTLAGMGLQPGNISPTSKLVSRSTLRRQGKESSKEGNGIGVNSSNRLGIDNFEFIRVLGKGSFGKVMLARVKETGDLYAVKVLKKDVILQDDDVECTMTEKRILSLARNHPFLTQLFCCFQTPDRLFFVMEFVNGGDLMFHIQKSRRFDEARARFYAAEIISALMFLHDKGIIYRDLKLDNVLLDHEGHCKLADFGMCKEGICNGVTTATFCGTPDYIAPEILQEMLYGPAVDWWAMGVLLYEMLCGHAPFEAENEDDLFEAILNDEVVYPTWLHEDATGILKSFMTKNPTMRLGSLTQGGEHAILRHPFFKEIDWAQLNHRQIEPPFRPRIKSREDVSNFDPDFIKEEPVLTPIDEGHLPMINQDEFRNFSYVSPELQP

[7] = test system: RAF1 (human), P04049 [Y340D/Y341D]; conditions: ATP 45 µM
[8] = test system: TEC (human), P42680 [F514V]; conditions: ATP 120 µM
Sequence of TEC (human), P42680 [F514V] (P42680 whole entry, looked up, stated change not applied): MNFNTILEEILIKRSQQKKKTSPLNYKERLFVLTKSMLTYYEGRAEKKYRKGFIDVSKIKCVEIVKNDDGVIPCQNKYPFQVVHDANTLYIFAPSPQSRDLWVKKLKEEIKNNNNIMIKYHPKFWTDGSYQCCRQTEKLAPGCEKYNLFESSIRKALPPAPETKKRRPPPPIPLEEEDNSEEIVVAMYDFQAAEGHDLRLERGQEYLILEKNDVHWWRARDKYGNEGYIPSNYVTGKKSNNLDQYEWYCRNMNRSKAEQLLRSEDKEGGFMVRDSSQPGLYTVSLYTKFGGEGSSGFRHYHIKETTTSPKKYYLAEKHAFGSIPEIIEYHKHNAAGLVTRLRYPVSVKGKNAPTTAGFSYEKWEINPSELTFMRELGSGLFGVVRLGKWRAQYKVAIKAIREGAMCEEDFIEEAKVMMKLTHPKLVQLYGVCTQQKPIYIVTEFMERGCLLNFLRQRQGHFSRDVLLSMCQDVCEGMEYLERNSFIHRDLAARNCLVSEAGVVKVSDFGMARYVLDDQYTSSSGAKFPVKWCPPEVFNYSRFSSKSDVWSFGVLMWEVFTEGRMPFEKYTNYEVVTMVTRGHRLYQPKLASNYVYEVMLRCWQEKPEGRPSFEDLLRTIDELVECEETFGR

Sequence of AKT2 (human), P31751 [S474D] (P31751 whole entry S474D, looked up): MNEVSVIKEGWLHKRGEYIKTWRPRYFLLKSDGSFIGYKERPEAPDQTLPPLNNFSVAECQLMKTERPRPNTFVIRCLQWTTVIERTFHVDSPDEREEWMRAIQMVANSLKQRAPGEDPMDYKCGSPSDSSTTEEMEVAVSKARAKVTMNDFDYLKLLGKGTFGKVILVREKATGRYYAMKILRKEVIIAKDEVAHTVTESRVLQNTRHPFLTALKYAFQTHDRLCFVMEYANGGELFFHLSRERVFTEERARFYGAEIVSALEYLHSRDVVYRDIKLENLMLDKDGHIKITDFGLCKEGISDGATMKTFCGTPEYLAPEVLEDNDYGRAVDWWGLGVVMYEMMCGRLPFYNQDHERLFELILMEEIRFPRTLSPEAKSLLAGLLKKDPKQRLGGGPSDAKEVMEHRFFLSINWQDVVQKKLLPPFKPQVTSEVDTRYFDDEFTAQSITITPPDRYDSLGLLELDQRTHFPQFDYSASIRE
Sequence of MARK1 (human), Q9P0L2 [V16E/T20S] (Q9P0L2 whole entry, looked up, stated change not applied): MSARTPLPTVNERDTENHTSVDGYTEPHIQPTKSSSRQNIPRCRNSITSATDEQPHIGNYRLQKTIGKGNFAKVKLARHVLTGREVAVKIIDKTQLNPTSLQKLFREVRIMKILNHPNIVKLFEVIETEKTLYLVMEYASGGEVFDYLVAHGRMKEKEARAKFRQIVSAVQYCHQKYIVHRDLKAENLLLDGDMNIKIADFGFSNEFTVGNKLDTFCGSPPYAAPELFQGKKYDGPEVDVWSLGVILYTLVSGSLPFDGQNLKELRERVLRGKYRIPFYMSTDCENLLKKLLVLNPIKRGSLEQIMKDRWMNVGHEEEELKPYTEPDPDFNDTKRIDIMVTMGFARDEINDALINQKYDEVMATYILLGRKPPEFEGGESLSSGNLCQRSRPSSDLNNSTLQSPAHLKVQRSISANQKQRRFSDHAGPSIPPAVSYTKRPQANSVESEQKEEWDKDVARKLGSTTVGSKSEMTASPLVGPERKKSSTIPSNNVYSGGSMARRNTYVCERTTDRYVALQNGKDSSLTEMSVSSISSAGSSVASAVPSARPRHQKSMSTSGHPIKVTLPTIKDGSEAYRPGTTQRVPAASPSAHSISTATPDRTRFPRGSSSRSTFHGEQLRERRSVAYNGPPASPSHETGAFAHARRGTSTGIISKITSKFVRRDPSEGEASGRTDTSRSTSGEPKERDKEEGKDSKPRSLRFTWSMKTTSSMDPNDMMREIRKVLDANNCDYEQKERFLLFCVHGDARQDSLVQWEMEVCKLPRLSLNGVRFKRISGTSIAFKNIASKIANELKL
Sequence of MAPKAPK2 (human), P49137 [A399G] (P49137 whole entry A399G, looked up): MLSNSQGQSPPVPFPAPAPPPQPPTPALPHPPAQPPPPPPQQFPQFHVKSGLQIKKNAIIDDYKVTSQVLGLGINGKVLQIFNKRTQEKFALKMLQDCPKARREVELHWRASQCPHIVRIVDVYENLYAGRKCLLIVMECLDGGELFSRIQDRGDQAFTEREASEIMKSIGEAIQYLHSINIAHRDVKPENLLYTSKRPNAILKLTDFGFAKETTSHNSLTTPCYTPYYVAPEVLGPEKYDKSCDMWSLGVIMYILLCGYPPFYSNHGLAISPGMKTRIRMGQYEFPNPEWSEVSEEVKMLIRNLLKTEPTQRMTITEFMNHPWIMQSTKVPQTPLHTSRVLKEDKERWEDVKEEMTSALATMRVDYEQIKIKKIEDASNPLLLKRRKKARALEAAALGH
Sequence of AURKA (human), O14965 [I31F] (O14965 whole entry, looked up, stated change not applied): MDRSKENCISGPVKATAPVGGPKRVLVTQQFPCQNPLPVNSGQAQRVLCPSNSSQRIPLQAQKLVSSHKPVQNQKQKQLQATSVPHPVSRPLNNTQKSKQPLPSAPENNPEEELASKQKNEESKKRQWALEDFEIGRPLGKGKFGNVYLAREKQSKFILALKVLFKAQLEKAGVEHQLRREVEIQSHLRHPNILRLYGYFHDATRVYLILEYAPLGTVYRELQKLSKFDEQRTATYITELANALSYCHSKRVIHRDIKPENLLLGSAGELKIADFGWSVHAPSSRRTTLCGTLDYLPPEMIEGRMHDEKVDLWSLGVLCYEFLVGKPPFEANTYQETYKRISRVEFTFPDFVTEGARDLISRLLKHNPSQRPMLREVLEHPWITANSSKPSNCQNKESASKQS

Row | residual activity ([1]; compound 1.0 µM) [%] | residual activity ([1]; compound 10.0 µM) [%] | residual activity ([2]; compound 1.0 µM) [%] | residual activity ([2]; compound 10.0 µM) [%] | residual activity ([3]; compound 1.0 µM) [%] | residual activity ([3]; compound 10.0 µM) [%] | residual activity ([4]; compound 10.0 µM) [%] | residual activity ([5]; compound 1.0 µM) [%] | residual activity ([6]; compound 1.0 µM) [%] | residual activity ([6]; compound 10.0 µM) [%] | residual activity ([7]; compound 1.0 µM) [%] | residual activity ([7]; compound 10.0 µM) [%] | residual activity ([8]; compound 1.0 µM) [%] | residual activity ([8]; compound 10.0 µM) [%] | Compound | residual activity ([4]; compound 1.0 µM) [%] | residual activity ([5]; compound 10.0 µM) [%]
1 | 98 | 92 | 7 | 0 | 101 | 76 | 5 | -2 | 91 | 83 | 89 | 66 | 64 | 22 | O=C1Nc2ccccc2/C1=C1\Nc2ccccc2\C1=N/O | 37 | -3
2 | 104 | 105 | 19 | 2 | 79 | 69 | 6 | 22 | 86 | 82 | 69 | 61 | 89 | 57 | O=C1c2ccccc2-c2n[nH]c3cccc1c23 | 38 | 9

Row | Compound | residual activity ([1]; compound 1.0 µM) [%] | residual activity ([1]; compound 10.0 µM) [%] | residual activity ([2]; compound 1.0 µM) [%] | residual activity ([2]; compound 10.0 µM) [%] | residual activity ([3]; compound 1.0 µM) [%] | residual activity ([3]; compound 10.0 µM) [%] | residual activity ([4]; compound 10.0 µM) [%] | residual activity ([5]; compound 1.0 µM) [%] | residual activity ([6]; compound 1.0 µM) [%] | residual activity ([6]; compound 10.0 µM) [%] | residual activity ([7]; compound 1.0 µM) [%] | residual activity ([7]; compound 10.0 µM) [%] | residual activity ([8]; compound 1.0 µM) [%] | residual activity ([8]; compound 10.0 µM) [%] | residual activity ([4]; compound 1.0 µM) [%] | residual activity ([5]; compound 10.0 µM) [%]
3 | CN[C@@H]1C[C@H]2O[C@@](C)([C@@H]1OC)n1c3ccccc3c3c4c(c5c6ccccc6n2c5c31)C(=O)NC4 | – | – | – | – | – | – | – | – | – | – | – | 80 | – | – | 0 | 0
4 | COC(=O)[C@]1(O)C[C@@H]2O[C@@]1(C)n1c3ccccc3c3c4c(c5c6ccccc6n2c5c31)C(=O)NC4 | – | – | – | -1 | 0 | -6 | 0 | – | – | – | – | – | – | – | 0 | 0
